# Publication PMC6971011, “Conformational changes in Apolipoprotein N-acyltransferase (Lnt)” (Scientific Reports, 2020)
# Target: T1, Apolipoprotein N-acyltransferase (Lnt); Lnt-C1, Lnt-C2 (Escherichia coli, UniProt P23930)
# T1 construct: full length; C1: fifteen-residue C-terminal tail with His8-tag kept; C2: N-terminal His6-tag TEV-cleaved, two extra N-terminal residues; expressed in E. coli C41, detergent-purified
# Assay: X-ray crystallography ([…] Å) and LC-MS/MS of tryptic peptide
# Assay type: binding
# Settings: covalent; thioester on active site C387 (acyl-enzyme intermediate, co-purified from expression host); Lnt-C1 chain B; vapor diffusion, pH 6.4
smiles,measurement,value
CCCCCCCCCCCCCCCC(=O)O [palmitate],X-ray crystallography (3.5 Å) and LC-MS/MS of tryptic peptide,mass spectrometry analysis (Fig. 3D) on purified Lnt that identified a palmitoyl modification at position C387
